Values joined by “and” are separate entries in the source; they are usually repeats but may differ in a detail not shown here. Equal entries are not always repeated. Toxic doses and inconclusive results are not listed.
Tested on: P388 leukemia ip, CD2F1 mice, survival T/C
Assay: NCI In Vivo Anticancer Drug Screen. Data for tumor model P388 Leukemia (intraperitoneal) in CD2F1 (CDF1) mice
Settings: endpoint: median survival time, higher = longer survival
How it was run: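 Mice carrying the transplanted tumor received test compound or vehicle. Survival was recorded in each group, and the value is the treated-group measurement divided by that of the vehicle-treated control group.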

[1] = dose: 50.0 mg/kg/injection, schedule: Q01DX009 (ip), vehicle: saline
[2] = dose: 100.0 mg/kg/injection, schedule: Q01DX009 (ip), vehicle: saline
[3] = dose: 50.0 mg/kg/injection, schedule: Q01DX005 (ip), vehicle: Klucel (hydroxypropylcellulose) (HPC)
[4] = dose: 100.0 mg/kg/injection, schedule: Q01DX005 (ip), vehicle: Klucel (hydroxypropylcellulose) (HPC)
[5] = dose: 200.0 mg/kg/injection, schedule: Q01DX005 (ip), vehicle: Klucel (hydroxypropylcellulose) (HPC)
[6] = dose: 100.0 mg/kg/injection, schedule: Q01DX001 (ip), vehicle: saline with Tween-80
[7] = dose: 200.0 mg/kg/injection, schedule: Q01DX001 (ip), vehicle: saline with Tween-80
[8] = dose: 400.0 mg/kg/injection, schedule: Q01DX001 (ip), vehicle: saline with Tween-80
[9] = dose: 200.0 mg/kg/injection, schedule: Q01DX009 (ip), vehicle: saline with Tween-80
[10] = dose: 50.0 mg/kg/injection, schedule: Q01DX005 (ip), vehicle: saline with Tween-80
[11] = dose: 100.0 mg/kg/injection, schedule: Q01DX005 (ip), vehicle: saline with Tween-80
[12] = dose: 200.0 mg/kg/injection, schedule: Q01DX005 (ip), vehicle: saline with Tween-80
[13] = dose: 60.0 mg/kg/injection, schedule: Q01DX005 (ip), vehicle: saline with Tween-80
[14] = dose: 120.0 mg/kg/injection, schedule: Q01DX005 (ip), vehicle: saline with Tween-80
[15] = dose: 240.0 mg/kg/injection, schedule: Q01DX005 (ip), vehicle: saline with Tween-80
[16] = dose: 25.0 mg/kg/injection, schedule: Q01DX005 (ip), vehicle: Klucel (hydroxypropylcellulose) (HPC)

For `COC(=O)Nc1cccc(-c2nc3ccc(NC(=O)OC)cc3c(=O)n2-c2ccccc2)c1`, the T/C (dose: 6.25 mg/kg/injection, schedule: Q01DX009 (ip), vehicle: Klucel (hydroxypropylcellulose) (HPC)) was 111 % of control, the T/C (dose: 8.0 mg/kg/injection, schedule: Q01DX005 (oral), vehicle: Klucel (hydroxypropylcellulose) (HPC)) was 109 % of control and 92 % of control and the T/C (dose: 12.5 mg/kg/injection, schedule: Q01DX009 (ip), vehicle: Klucel (hydroxypropylcellulose) (HPC)) was 112 % of control. For the same compound, the T/C (dose: 16.0 mg/kg/injection, schedule: Q01DX005 (oral), vehicle: Klucel (hydroxypropylcellulose) (HPC)) was 110 % of control and 111 % of control, the T/C (dose: 16.0 mg/kg/injection, schedule: Q01DX005 (oral), vehicle: saline) was 108 % of control and the T/C (dose: 25.0 mg/kg/injection, schedule: Q01DX009 (ip), vehicle: Klucel (hydroxypropylcellulose) (HPC)) was 153 % of control. For the same compound, the T/C (dose: 25.0 mg/kg/injection, schedule: Q01DX009 (ip), vehicle: saline) was 110 % of control, the T/C (dose: 25.0 mg/kg/injection, schedule: Q01DX009 (oral), vehicle: Klucel (hydroxypropylcellulose) (HPC)) was 114 % of control and the T/C (dose: 32.0 mg/kg/injection, schedule: Q01DX005 (oral), vehicle: Klucel (hydroxypropylcellulose) (HPC)) was 112 % of control. The T/C (dose: 32.0 mg/kg/injection, schedule: Q01DX005 (oral), vehicle: saline) was 121 % of control, the T/C [1] was 236 % of control and the T/C (dose: 50.0 mg/kg/injection, schedule: Q01DX009 (oral), vehicle: Klucel (hydroxypropylcellulose) (HPC)) was 118 % of control. The T/C (dose: 64.0 mg/kg/injection, schedule: Q01DX005 (oral), vehicle: Klucel (hydroxypropylcellulose) (HPC)) was 102 % of control, the T/C [2] was 202 % of control and 236 % of control and the T/C (dose: 128.0 mg/kg/injection, schedule: Q01DX005 (oral), vehicle: Klucel (hydroxypropylcellulose) (HPC)) was 102 % of control. For the same compound, the T/C (dose: 128.0 mg/kg/injection, schedule: Q01DX005 (oral), vehicle: saline) was 171 % of control, the T/C (dose: 150.0 mg/kg/injection, schedule: Q01DX009 (ip), vehicle: saline) was 236 % of control and the T/C (dose: 200.0 mg/kg/injection, schedule: Q01DX009 (oral), vehicle: Klucel (hydroxypropylcellulose) (HPC)) was 181 % of control. For the same compound, the T/C (dose: 400.0 mg/kg/injection, schedule: Q01DX009 (oral), vehicle: Klucel (hydroxypropylcellulose) (HPC)) was 183 % of control and the T/C (dose: 800.0 mg/kg/injection, schedule: Q01DX009 (oral), vehicle: Klucel (hydroxypropylcellulose) (HPC)) was 205 % of control.
In the case of `Cc1ccc(S(=O)(=O)C(=S)SCc2ccccc2)cc1`, the T/C [3] is reported as 106 % of control, the T/C [4] is reported as 105 % of control and the T/C [5] is reported as 96 % of control.
In the case of `CCCCC1(CCCCCCCCC(=O)OCC)OCCO1`, the T/C [3] is reported as 96 % of control, the T/C [4] is reported as 97 % of control and the T/C [5] is reported as 97 % of control.
For `Cc1ccc(S(=O)(=O)NCCN(CCNS(=O)(=O)c2ccc(C)cc2)S(=O)(=O)c2ccc(C)cc2)cc1`, the T/C [6] was 86 % of control, the T/C [7] was 86 % of control and the T/C [8] was 88 % of control.
With `[S-]c1n[n+](-c2ccccc2)c(-c2ccccc2)s1` the T/C (dose: 50.0 mg/kg/injection, schedule: Q01DX009 (ip), vehicle: saline with Tween-80) was 100 % of control, the T/C (dose: 100.0 mg/kg/injection, schedule: Q01DX009 (ip), vehicle: saline with Tween-80) was 100 % of control and the T/C [9] was 93 % of control.
For `O=c1[nH]cc(Cn2cccc3c(=O)ncnc2-3)c(=O)[nH]1`, the T/C (dose: 100.0 mg/kg/injection, schedule: Q01DX001 (ip), vehicle: suspension in saline) was 93 % of control and the T/C (dose: 200.0 mg/kg/injection, schedule: Q01DX001 (ip), vehicle: suspension in saline) was 102 % of control.
For `CC(NCCCCCCNC(C)C(=O)O)C(=O)O` (stereo not drawn), the T/C [10] was 105 % of control, the T/C [11] was 100 % of control and the T/C [12] was 117 % of control.
In the case of `CCCCOC1=NC2C(=O)NCC2CO1` (stereo not drawn), the T/C [10] is reported as 97 % of control, the T/C [11] is reported as 94 % of control and the T/C [12] is reported as 97 % of control.
In the case of `COC(=O)C1=C(C(=O)OC)P2(C)(C)ON(c3ccccc3)C(C(=O)c3ccccc3)N2C1(c1ccccc1)c1ccccc1` (stereo not drawn), the T/C [3] is reported as 100 % of control, the T/C [4] is reported as 93 % of control and the T/C [5] is reported as 98 % of control.
`Cc1cc(C)c(OP(=S)(Oc2c(C)cc(C)cc2C)Oc2c(C)cc(C)cc2C)c(C)c1` was tested, and the T/C (dose: 100.0 mg/kg/injection, schedule: Q04DX002 (ip), vehicle: Klucel (hydroxypropylcellulose) (HPC)) was 87 % of control and the T/C (dose: 200.0 mg/kg/injection, schedule: Q04DX002 (ip), vehicle: Klucel (hydroxypropylcellulose) (HPC)) was 86 % of control.
`CCN(CC)CCNC(c1ccc(OC)cc1)C(Cl)(Cl)Cl` (stereo not drawn) was tested, and the T/C (dose: 60.0 mg/kg/injection, schedule: Q01DX005 (ip), vehicle: saline) was 94 % of control and the T/C (dose: 120.0 mg/kg/injection, schedule: Q01DX005 (ip), vehicle: saline) was 94 % of control.
In the case of `O=CNC(Cc1ccccc1)c1ccc(OCc2ccccc2)cc1` (stereo not drawn), the T/C [3] is reported as 98 % of control, the T/C [4] is reported as 92 % of control and the T/C [5] is reported as 87 % of control.
`Cc1cccc(C2=NC(=C3CCCCC3)C(=O)O2)c1` was tested, and the T/C [13] was 101 % of control, the T/C [14] was 100 % of control and the T/C [15] was 100 % of control.
`CC(C)(C)c1ccc(SS(=O)(=O)c2ccc(C(C)(C)C)cc2)cc1` was tested, and the T/C [6] was 98 % of control, the T/C (dose: 100.0 mg/kg/injection, schedule: Q04DX003 (ip), vehicle: Klucel (hydroxypropylcellulose) (HPC)) was 97 % of control and the T/C [7] was 100 % of control. For the same compound, the T/C (dose: 200.0 mg/kg/injection, schedule: Q04DX003 (ip), vehicle: Klucel (hydroxypropylcellulose) (HPC)) was 104 % of control, the T/C [8] was 97 % of control and the T/C (dose: 400.0 mg/kg/injection, schedule: Q04DX003 (ip), vehicle: Klucel (hydroxypropylcellulose) (HPC)) was 105 % of control.
With `Nc1ccc(S(=O)(=O)c2ccc(N)cc2)cc1` the T/C (dose: 6.25 mg/kg/injection, schedule: Q01DX005 (ip), vehicle: Klucel (hydroxypropylcellulose) (HPC)) was 106 % of control, the T/C (dose: 12.5 mg/kg/injection, schedule: Q01DX005 (ip), vehicle: Klucel (hydroxypropylcellulose) (HPC)) was 98 % of control and the T/C [16] was 104 % of control. The T/C [3] was 105 % of control, the T/C [4] was 109 % of control and the T/C (dose: 150.0 mg/kg/injection, schedule: Q01DX009 (ip), vehicle: saline with Tween-80) was 109 % of control and 93 % of control. The T/C [9] was 98 % of control and 105 % of control.
In the case of `COc1cc(C)c(/C=C/C(C)=C/c2cc(C)cc(=O)o2)c(C)c1C`, the T/C [16] is reported as 86 % of control, the T/C [3] is reported as 88 % of control and the T/C [4] is reported as 86 % of control and 92 % of control.
With `COc1ccc(-c2nn(-c3ccccc3)cc2Oc2ccccc2O)cc1` the T/C [13] was 104 % of control, the T/C [14] was 102 % of control and the T/C [15] was 96 % of control.
For `CN(C)C(=C1C=CC=C/C1=N/S(=O)(=O)c1ccccc1)N(C)C`, the T/C (dose: 100.0 mg/kg/injection, schedule: Q04DX003 (ip), vehicle: saline) was 103 % of control, the T/C (dose: 200.0 mg/kg/injection, schedule: Q04DX003 (ip), vehicle: saline) was 108 % of control and the T/C (dose: 400.0 mg/kg/injection, schedule: Q04DX003 (ip), vehicle: saline) was 105 % of control.
`NCCC(=O)NC(Cc1cnc[nH]1)C(=O)O` (stereo not drawn) was tested, and the T/C [1] was 104 % of control, the T/C [2] was 104 % of control and the T/C (dose: 200.0 mg/kg/injection, schedule: Q01DX009 (ip), vehicle: saline) was 99 % of control. For the same compound, the T/C (dose: 400.0 mg/kg/injection, schedule: Q01DX009 (ip), vehicle: saline) was 98 % of control.
With `COc1ccc2c(c1)-c1nn(CCO)c(-c3ccccn3)c1CC2` the T/C (dose: 50.0 mg/kg/injection, schedule: Q01DX009 (ip), vehicle: Klucel (hydroxypropylcellulose) (HPC)) was 109 % of control, the T/C (dose: 100.0 mg/kg/injection, schedule: Q01DX009 (ip), vehicle: Klucel (hydroxypropylcellulose) (HPC)) was 106 % of control and the T/C (dose: 200.0 mg/kg/injection, schedule: Q01DX009 (ip), vehicle: Klucel (hydroxypropylcellulose) (HPC)) was 106 % of control.
For `FC(F)(c1nc2ccccc2[nH]1)C(F)(F)C(F)(F)c1nc2ccccc2[nH]1`, the T/C [10] was 95 % of control, the T/C [11] was 89 % of control and the T/C [12] was 88 % of control.
In the case of `O=C1OCC2(C(=O)O)C(=O)OCC12` (stereo not drawn), the T/C (dose: 8.0 mg/kg/injection, schedule: Q01DX009 (ip), vehicle: saline with Tween-80) is reported as 94 % of control, the T/C (dose: 16.0 mg/kg/injection, schedule: Q01DX009 (ip), vehicle: saline with Tween-80) is reported as 105 % of control and 108 % of control and the T/C (dose: 32.0 mg/kg/injection, schedule: Q01DX009 (ip), vehicle: saline with Tween-80) is reported as 107 % of control. The T/C (dose: 64.0 mg/kg/injection, schedule: Q01DX009 (ip), vehicle: saline with Tween-80) was 100 % of control and 108 % of control and the T/C (dose: 128.0 mg/kg/injection, schedule: Q01DX009 (ip), vehicle: saline with Tween-80) was 97 % of control.
In the case of `O=C(C(Cl)Cl)N1CCN(C(=O)C(Cl)Cl)CC1`, the T/C [3] is reported as 102 % of control, the T/C [4] is reported as 110 % of control and the T/C [5] is reported as 105 % of control.

From PubChem BioAssay AID330 (DTP/NCI, 2004)
